Assay results from article PMC8286840, “Identifying SARS-CoV-2 antiviral compounds by screening for small molecule inhibitors of Nsp3 papain-like protease” (Biochemical Journal, 2021).
Counter-ions that a name gives are not always drawn. Like-named read-outs stand apart in the source and are kept apart here.

What was measured:
[1] = biological target: T1, SARS-CoV-2 PLpro (nsp3 1564–1878) (Severe acute respiratory syndrome coronavirus 2, UniProt P0DTD1); test: biochemical; design: FRET-quenched peptide (Pro3) cleavage by PLpro, 10 min pre-incubation, slope over 20 min, normalised to no-compound control; details: low concentration screen, read-out: % of control remaining
[2] = biological target: T1, SARS-CoV-2 PLpro (nsp3 1564–1878); test: biochemical; design: FRET-quenched peptide (Pro3) cleavage by PLpro, 10 min pre-incubation, slope over 20 min, normalised to no-compound control; details: high concentration screen, read-out: % of control remaining

Question: With `CN1CCC(=C2c3ccccc3CCc3cccnc32)CC1` [Azatadine dimaleate] as the compound, how does the remaining activity at 1.25 µM ([1]; Well no.=5036) read?
Answer: 99%

Question: What about the remaining activity at 3.75 µM ([2]; Well no.=5036) of the same compound?
Answer: 102%

Question: `Cn1cnc([N+](=O)[O-])c1Sc1ncnc2[nH]cnc12` [Azathioprine] was tested. Which remaining activity at 1.25 µM ([1]; Well no.=111) did it give?
Answer: 99.7%

Question: And the remaining activity at 1.25 µM ([1]; Well no.=1834)?
Answer: 102%

Question: And the remaining activity at 3.75 µM ([2]; Well no.=111)?
Answer: 100%

Question: What about the remaining activity at 3.75 µM ([2]; Well no.=1834) of the same compound?
Answer: 97.6%

Question: How did the remaining activity at 1.25 µM ([1]; Well no.=243) turn out when `O=C(O)CCCCCCCC(=O)O` [Azelaic acid] was run?
Answer: 100%

Question: What about the remaining activity at 1.25 µM ([1]; Well no.=6157) of the same compound?
Answer: 108%

Question: And the remaining activity at 3.75 µM ([2]; Well no.=243)?
Answer: 98.7%

Question: What about the remaining activity at 3.75 µM ([2]; Well no.=6157) of the same compound?
Answer: 105%

Question: How did the remaining activity at 1.25 µM ([1]; Well no.=6173) turn out when `CN1CCCC(n2nc(Cc3ccc(Cl)cc3)c3ccccc3c2=O)CC1` (stereo not drawn) [Azelastine (hydrochloride)] was run?
Answer: 103%

Question: What about the remaining activity at 3.75 µM ([2]; Well no.=6173) of the same compound?
Answer: 105%

Question: For `CC1=C(C(=O)OC(C)C)C(c2cccc([N+](=O)[O-])c2)C(C(=O)OC2CN(C(c3ccccc3)c3ccccc3)C2)=C(N)N1` (stereo not drawn) [Azelnidipine], which remaining activity at 1.25 µM ([1]; Well no.=5275) is on record?
Answer: 97.2%

Question: And the remaining activity at 3.75 µM ([2]; Well no.=5275)?
Answer: 93.3%

Question: How did the remaining activity at 1.25 µM ([1]; Well no.=5416) turn out when `CCOc1nc2cccc(C(=O)O)c2n1Cc1ccc(-c2ccccc2-c2noc(=O)[nH]2)cc1` [Azilsartan] was run?
Answer: 97.2%

Question: And the remaining activity at 1.25 µM ([1]; Well no.=6813)?
Answer: 90.2%

Question: What about the remaining activity at 3.75 µM ([2]; Well no.=5416) of the same compound?
Answer: 95.7%

Question: What about the remaining activity at 3.75 µM ([2]; Well no.=6813) of the same compound?
Answer: 89.9%

Question: What does the source list for `CC[C@H]1OC(=O)[C@H](C)[C@@H](O[C@H]2C[C@@](C)(OC)[C@@H](O)[C@H](C)O2)[C@H](C)[C@@H](O[C@@H]2O[C@H](C)C[C@H](N(C)C)[C@H]2O)[C@](C)(O)C[C@@H](C)CN(C)[C@H](C)[C@@H](O)[C@]1(C)O` [Azithromycin]?
Answer: remaining activity at 1.25 µM ([1]; Well no.=2167): 97.4%; remaining activity at 3.75 µM ([2]; Well no.=2167): 102%

Question: With `CC1(C)S[C@@H]2[C@H](NC(=O)[C@H](NC(=O)N3CCNC3=O)c3ccccc3)C(=O)N2[C@H]1C(=O)O` [Azlocillin (sodium salt)] as the compound, how does the remaining activity at 1.25 µM ([1]; Well no.=7454) read?
Answer: 94.9%

Question: And the remaining activity at 3.75 µM ([2]; Well no.=7454)?
Answer: 101%

Question: What does the source list for `CC1(C)S[C@@H]2[C@H](NC(=O)[C@H](NC(=O)N3CCNC3=O)c3ccccc3)C(=O)N2[C@H]1C(=O)O` [Azlocillin sodium salt]?
Answer: remaining activity at 1.25 µM ([1]; Well no.=5356): 98.5%; remaining activity at 3.75 µM ([2]; Well no.=5356): 93.9%

Question: Which results are given for `c1ccc(/N=N/c2ccccc2)cc1` [Azobenzene]?
Answer: remaining activity at 1.25 µM ([1]; Well no.=8080): 102%; remaining activity at 3.75 µM ([2]; Well no.=8080): 101%

Question: Which results are given for `O=[N+]([O-])c1ncc[nH]1` [Azomycin]?
Answer: remaining activity at 1.25 µM ([1]; Well no.=3571): 109%; remaining activity at 3.75 µM ([2]; Well no.=3571): 103%

Question: `CCCC(=O)NCCc1csc(-c2ccc(Cl)cc2)n1` [Azoramide] was tested. Which remaining activity at 1.25 µM ([1]; Well no.=8488) did it give?
Answer: 98.4%

Question: And the remaining activity at 3.75 µM ([2]; Well no.=8488)?
Answer: 99.7%

Question: What does the source list for `C[C@H]1[C@H](NC(=O)/C(=N\OC(C)(C)C(=O)O)c2csc(N)n2)C(=O)N1S(=O)(=O)O` [Aztreonam]?
Answer: remaining activity at 1.25 µM ([1]; Well no.=2169): 103%; remaining activity at 3.75 µM ([2]; Well no.=2169): 102%

Question: `C=CCN1CCc2nc(N)sc2CC1` [B-HT 920] was tested. Which remaining activity at 1.25 µM ([1]; Well no.=8195) did it give?
Answer: 99.9%

Question: What about the remaining activity at 3.75 µM ([2]; Well no.=8195) of the same compound?
Answer: 100%

Question: How did the remaining activity at 1.25 µM ([1]; Well no.=87) turn out when `CCN1CCc2nc(N)oc2CC1` [B-HT 933 dihydrochloride] was run?
Answer: 102%

Question: What about the remaining activity at 3.75 µM ([2]; Well no.=87) of the same compound?
Answer: 105%

Question: With `O=C(NCCCN1CCC2(CC1)OCc1ccccc12)[C@H]1CCCN1Cc1ccccc1` [BAN ORL 24] as the compound, how does the remaining activity at 1.25 µM ([1]; Well no.=6946) read?
Answer: 97.7%

Question: What about the remaining activity at 3.75 µM ([2]; Well no.=6946) of the same compound?
Answer: 102%

Question: With `Cc1ccc(S(=O)(=O)/C=C/C#N)cc1` [BAY 11-7082] as the compound, how does the remaining activity at 1.25 µM ([1]; Well no.=79) read?
Answer: 102%

Question: What about the remaining activity at 1.25 µM ([1]; Well no.=2360) of the same compound?
Answer: 98.2%

Question: And the remaining activity at 3.75 µM ([2]; Well no.=79)?
Answer: 99.5%

Question: And the remaining activity at 3.75 µM ([2]; Well no.=2360)?
Answer: 99.1%

Question: And the remaining activity at 3.75 µM ([2]; Well no.=6204)?
Answer: 104%

Question: What does the source list for `Nc1nc(-c2nn(Cc3ccccc3F)c3ncccc23)ncc1C1CC1` [BAY 41-2272]?
Answer: remaining activity at 1.25 µM ([1]; Well no.=7717): 102%; remaining activity at 3.75 µM ([2]; Well no.=7717): 94.6%

Question: How did the remaining activity at 1.25 µM ([1]; Well no.=8597) turn out when `CCn1c(=O)c2c(C)c(C(=O)N3CCC(O)CC3)sc2n(CCC(F)(F)F)c1=O` [BAY-545] was run?
Answer: 106%

Question: What about the remaining activity at 3.75 µM ([2]; Well no.=8597) of the same compound?
Answer: 104%

Question: For `CC(=O)C1=C(C)N(c2cccc(C(F)(F)F)c2)C(=O)N[C@@H]1c1ccc(C#N)nc1` [BAY-678], which remaining activity at 1.25 µM ([1]; Well no.=7734) is on record?
Answer: 97.9%

Question: What about the remaining activity at 3.75 µM ([2]; Well no.=7734) of the same compound?
Answer: 101%

Question: With `Cc1c(NC(=O)c2cc(C(N)=O)nc3cc(F)ccc23)c(C(F)(F)F)nn1Cc1ccc(C#N)cc1` [BAY-876] as the compound, how does the remaining activity at 1.25 µM ([1]; Well no.=8680) read?
Answer: 101%

Question: What about the remaining activity at 3.75 µM ([2]; Well no.=8680) of the same compound?
Answer: 98.3%

Question: For `CN1CCN(CCc2ccc(Cl)c(Cl)c2)CC1` [BD1063 (dhydrochloride)], which remaining activity at 1.25 µM ([1]; Well no.=8057) is on record?
Answer: 90.2%

Question: What about the remaining activity at 3.75 µM ([2]; Well no.=8057) of the same compound?
Answer: 95.3%

Question: What does the source list for `CN(C)CCN(C)CCc1ccc(Cl)c(Cl)c1` [BD 1047 dihydrobromide]?
Answer: remaining activity at 1.25 µM ([1]; Well no.=5470): 101%; remaining activity at 3.75 µM ([2]; Well no.=5470): 108%

Question: `CN(C)CCN(C)CCc1ccc(Cl)c(Cl)c1` [BD-1047 (dihydrobromide)] was tested. Which remaining activity at 1.25 µM ([1]; Well no.=7287) did it give?
Answer: 95.4%

Question: And the remaining activity at 3.75 µM ([2]; Well no.=7287)?
Answer: 97.8%

Question: With `N[C@@H](CSCCB(O)O)C(=O)O` [BEC (hydrochloride)] as the compound, how does the remaining activity at 1.25 µM ([1]; Well no.=8165) read?
Answer: 105%

Question: And the remaining activity at 3.75 µM ([2]; Well no.=8165)?
Answer: 103%

Question: Which results are given for `CCN1CCN(c2ccc(Nc3cc(N(C)C(=O)Nc4c(Cl)c(OC)cc(OC)c4Cl)ncn3)cc2)CC1` [BGJ398 (NVP-BGJ398)]?
Answer: remaining activity at 1.25 µM ([1]; Well no.=5140): 97%; remaining activity at 3.75 µM ([2]; Well no.=5140): 99.3%

Question: What does the source list for `CC(C)C(C(=O)O)N1C(=O)/C(=C\c2ccc(Br)cc2)SC1=S` (stereo not drawn) [BH3I-1]?
Answer: remaining activity at 1.25 µM ([1]; Well no.=6586): 98.6%; remaining activity at 3.75 µM ([2]; Well no.=6586): 99.7%

Question: With `O=c1[nH]nc(Sc2ncc([N+](=O)[O-])s2)n1-c1ccc2c(c1)OCCO2` [BI 78D3 - 4-(2,3-Dihydro-1,4-benzodioxin-6-yl)-2,4-dihydro-5-[(5-nitro-2-thiazolyl)thio]-3H-1,2,4-triazol-3-one] as the compound, how does the remaining activity at 1.25 µM ([1]; Well no.=2684) read?
Answer: 95.6%

Question: And the remaining activity at 3.75 µM ([2]; Well no.=2684)?
Answer: 97.1%

Question: `O=c1[nH]nc(Sc2ncc([N+](=O)[O-])s2)n1-c1ccc2c(c1)OCCO2` [BI-78D3] was tested. Which remaining activity at 1.25 µM ([1]; Well no.=6058) did it give?
Answer: 101%

Question: What about the remaining activity at 3.75 µM ([2]; Well no.=6058) of the same compound?
Answer: 96.9%

Question: For `CC(C)CCN1c2nc(Nc3cc(F)c(O)c(F)c3)ncc2N(C)C(=O)C1C` (stereo not drawn) [BI-D1870], which remaining activity at 1.25 µM ([1]; Well no.=2787) is on record?
Answer: 101%

Question: What about the remaining activity at 3.75 µM ([2]; Well no.=2787) of the same compound?
Answer: 104%

Question: Which remaining activity at 1.25 µM ([1]; Well no.=5095) does the source give for `C/C(=C\C(=O)Nc1ccccc1C(=O)O)c1ccc2ccccc2c1` [BIBR 1532] here?
Answer: 103%

Question: And the remaining activity at 3.75 µM ([2]; Well no.=5095)?
Answer: 106%

Question: With `CN1CCC(Nc2ncc3ncnc(Nc4ccc(F)c(Cl)c4)c3n2)CC1` [BIBX 1382 dihydrochloride - N8-(3-Chloro-4-fluorophenyl)-N2-(1-methyl-4-piperidinyl)-pyrimido[5,4-d]pyrimidine-2,8-diamine dihydrochloride] as the compound, how does the remaining activity at 1.25 µM ([1]; Well no.=2528) read?
Answer: 96.6%

Question: What about the remaining activity at 3.75 µM ([2]; Well no.=2528) of the same compound?
Answer: 91%

Question: How did the remaining activity at 1.25 µM ([1]; Well no.=5091) turn out when `COc1c(C)cnc(Cn2cnc3c(Cl)nc(N)nc32)c1C` [BIIB021] was run?
Answer: 104%

Question: What about the remaining activity at 3.75 µM ([2]; Well no.=5091) of the same compound?
Answer: 107%
